According to ChEMBL document CHEMBL5291721, “A preclinical secondary pharmacology resource illuminates target-adverse drug reaction associations of marketed drugs” (Nat Commun, 2023):

Legend:
[1] = target: T1, Alpha-1A adrenergic receptor (Homo sapiens, UniProt P35348); type: functional, cell-based
T1 sequence (P35348 whole entry): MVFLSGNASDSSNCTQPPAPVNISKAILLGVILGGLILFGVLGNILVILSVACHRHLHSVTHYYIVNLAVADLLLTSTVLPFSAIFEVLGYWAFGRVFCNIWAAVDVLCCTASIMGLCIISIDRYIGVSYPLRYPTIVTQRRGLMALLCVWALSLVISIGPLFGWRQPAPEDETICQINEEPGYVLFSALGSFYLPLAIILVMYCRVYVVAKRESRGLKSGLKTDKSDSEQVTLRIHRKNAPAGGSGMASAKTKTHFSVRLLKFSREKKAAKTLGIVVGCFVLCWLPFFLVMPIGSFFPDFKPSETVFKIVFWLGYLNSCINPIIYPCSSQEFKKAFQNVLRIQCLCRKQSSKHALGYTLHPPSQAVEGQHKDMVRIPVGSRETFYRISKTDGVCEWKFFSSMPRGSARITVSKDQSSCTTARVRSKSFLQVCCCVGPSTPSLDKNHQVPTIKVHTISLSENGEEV

[2] = target: T2, Adenosine receptor A1 (Homo sapiens, UniProt P30542)
T2 sequence (P30542 whole entry): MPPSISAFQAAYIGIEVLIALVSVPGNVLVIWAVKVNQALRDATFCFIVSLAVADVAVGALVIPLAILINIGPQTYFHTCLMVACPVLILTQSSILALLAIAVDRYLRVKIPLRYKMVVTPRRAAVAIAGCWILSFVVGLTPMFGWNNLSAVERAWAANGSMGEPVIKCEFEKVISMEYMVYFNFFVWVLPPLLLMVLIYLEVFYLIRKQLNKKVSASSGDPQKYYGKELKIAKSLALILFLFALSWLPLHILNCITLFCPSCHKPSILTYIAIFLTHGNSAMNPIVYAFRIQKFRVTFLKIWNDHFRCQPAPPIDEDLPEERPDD

[3] = target: 5-hydroxytryptamine receptor 2B (Homo sapiens, UniProt P41595); type: functional, cell-based
Chain of 5-hydroxytryptamine receptor 2B (P41595 whole entry): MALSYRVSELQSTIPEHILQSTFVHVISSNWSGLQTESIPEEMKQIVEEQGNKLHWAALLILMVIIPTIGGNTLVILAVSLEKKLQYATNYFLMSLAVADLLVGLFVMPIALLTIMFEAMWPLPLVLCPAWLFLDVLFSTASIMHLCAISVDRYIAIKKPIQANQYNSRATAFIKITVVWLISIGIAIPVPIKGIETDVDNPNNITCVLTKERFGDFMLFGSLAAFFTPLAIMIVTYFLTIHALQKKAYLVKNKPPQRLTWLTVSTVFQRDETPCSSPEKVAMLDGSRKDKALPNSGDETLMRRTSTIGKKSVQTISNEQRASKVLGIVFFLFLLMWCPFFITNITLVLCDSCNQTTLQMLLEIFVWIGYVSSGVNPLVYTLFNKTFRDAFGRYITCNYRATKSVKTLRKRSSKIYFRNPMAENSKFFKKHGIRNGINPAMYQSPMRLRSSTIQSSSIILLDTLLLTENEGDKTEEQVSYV

[4] = target: Growth hormone secretagogue receptor type 1 (Homo sapiens, UniProt Q92847)
Chain of Growth hormone secretagogue receptor type 1 (Q92847 whole entry): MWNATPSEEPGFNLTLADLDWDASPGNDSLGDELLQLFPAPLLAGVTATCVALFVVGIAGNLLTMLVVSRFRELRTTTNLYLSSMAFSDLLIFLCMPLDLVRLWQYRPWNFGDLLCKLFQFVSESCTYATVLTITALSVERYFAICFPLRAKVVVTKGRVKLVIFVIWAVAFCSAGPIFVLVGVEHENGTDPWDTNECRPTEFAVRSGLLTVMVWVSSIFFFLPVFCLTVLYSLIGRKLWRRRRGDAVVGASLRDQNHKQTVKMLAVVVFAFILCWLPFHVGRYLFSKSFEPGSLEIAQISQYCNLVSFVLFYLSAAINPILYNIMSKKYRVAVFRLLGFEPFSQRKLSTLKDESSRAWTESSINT

[5] = target: Delta-type opioid receptor (Homo sapiens, UniProt P41143)
Chain of Delta-type opioid receptor (P41143 whole entry): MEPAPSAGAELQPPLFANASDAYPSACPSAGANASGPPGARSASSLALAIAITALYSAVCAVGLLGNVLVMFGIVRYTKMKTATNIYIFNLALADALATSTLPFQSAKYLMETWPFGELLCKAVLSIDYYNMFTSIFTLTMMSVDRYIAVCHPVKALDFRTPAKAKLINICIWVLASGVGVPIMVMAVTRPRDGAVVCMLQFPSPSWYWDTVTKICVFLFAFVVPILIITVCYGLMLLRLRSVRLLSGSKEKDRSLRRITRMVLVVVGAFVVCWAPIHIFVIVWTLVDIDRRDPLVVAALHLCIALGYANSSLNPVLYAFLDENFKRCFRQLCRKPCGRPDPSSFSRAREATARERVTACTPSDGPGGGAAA

[6] = target: T3, Alpha-2A adrenergic receptor (Homo sapiens, UniProt P08913); type: functional, cell-based
T3 sequence (P08913 whole entry): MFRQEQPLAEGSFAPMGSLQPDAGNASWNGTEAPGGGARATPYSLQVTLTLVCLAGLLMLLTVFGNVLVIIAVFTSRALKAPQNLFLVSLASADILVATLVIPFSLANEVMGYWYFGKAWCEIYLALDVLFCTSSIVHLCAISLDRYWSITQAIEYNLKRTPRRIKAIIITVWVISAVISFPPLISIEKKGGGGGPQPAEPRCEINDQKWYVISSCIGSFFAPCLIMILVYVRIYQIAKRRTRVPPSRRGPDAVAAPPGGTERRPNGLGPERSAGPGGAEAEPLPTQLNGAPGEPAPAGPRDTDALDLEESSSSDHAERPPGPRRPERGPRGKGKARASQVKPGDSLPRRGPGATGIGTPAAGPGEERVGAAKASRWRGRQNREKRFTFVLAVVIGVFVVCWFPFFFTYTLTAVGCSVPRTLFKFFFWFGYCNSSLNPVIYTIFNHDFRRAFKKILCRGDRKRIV

[7] = target: Cannabinoid receptor 1 (Homo sapiens, UniProt P21554); type: functional, cell-based
Chain of Cannabinoid receptor 1 (P21554 whole entry): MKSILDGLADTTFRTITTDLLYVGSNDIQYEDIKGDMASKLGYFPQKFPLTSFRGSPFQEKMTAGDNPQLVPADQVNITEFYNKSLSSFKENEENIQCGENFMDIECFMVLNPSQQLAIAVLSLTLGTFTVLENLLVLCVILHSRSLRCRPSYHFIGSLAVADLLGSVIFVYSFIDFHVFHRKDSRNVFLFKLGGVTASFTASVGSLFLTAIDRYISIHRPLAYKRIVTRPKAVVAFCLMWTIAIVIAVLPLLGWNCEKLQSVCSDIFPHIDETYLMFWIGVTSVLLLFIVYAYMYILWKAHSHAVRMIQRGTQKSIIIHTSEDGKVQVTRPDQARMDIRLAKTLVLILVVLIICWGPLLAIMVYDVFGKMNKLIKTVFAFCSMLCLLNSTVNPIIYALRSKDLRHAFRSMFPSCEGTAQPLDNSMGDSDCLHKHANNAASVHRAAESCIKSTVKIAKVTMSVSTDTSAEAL

[8] = target: Mu-type opioid receptor (Homo sapiens, UniProt P35372); assay: biochemical; type: functional
Chain of Mu-type opioid receptor (P35372 whole entry): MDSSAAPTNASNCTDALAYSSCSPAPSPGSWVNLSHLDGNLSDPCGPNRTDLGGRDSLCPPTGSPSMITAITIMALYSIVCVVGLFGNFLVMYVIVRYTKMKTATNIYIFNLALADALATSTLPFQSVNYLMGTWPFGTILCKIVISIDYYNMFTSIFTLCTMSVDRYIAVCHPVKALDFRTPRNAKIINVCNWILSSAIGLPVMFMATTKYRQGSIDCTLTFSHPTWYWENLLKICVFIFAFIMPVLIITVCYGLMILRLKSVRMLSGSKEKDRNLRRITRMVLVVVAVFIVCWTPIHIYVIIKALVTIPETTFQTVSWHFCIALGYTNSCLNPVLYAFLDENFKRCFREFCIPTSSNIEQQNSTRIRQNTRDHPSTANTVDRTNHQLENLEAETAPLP

[9] = target: Histamine H2 receptor (Homo sapiens, UniProt P25021); type: functional, cell-based
Chain of Histamine H2 receptor (P25021 whole entry): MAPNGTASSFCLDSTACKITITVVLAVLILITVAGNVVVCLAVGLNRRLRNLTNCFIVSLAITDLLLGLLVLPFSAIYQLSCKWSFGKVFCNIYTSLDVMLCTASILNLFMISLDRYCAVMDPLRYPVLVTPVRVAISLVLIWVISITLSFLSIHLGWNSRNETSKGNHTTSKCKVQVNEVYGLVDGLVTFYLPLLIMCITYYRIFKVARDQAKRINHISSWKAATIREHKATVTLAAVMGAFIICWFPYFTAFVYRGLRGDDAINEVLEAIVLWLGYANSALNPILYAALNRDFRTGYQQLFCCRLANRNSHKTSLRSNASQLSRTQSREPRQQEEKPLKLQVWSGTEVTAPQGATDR

[10] = target: T4, 5-hydroxytryptamine receptor 1A (Homo sapiens, UniProt P08908); type: functional, cell-based
T4 sequence (P08908 whole entry): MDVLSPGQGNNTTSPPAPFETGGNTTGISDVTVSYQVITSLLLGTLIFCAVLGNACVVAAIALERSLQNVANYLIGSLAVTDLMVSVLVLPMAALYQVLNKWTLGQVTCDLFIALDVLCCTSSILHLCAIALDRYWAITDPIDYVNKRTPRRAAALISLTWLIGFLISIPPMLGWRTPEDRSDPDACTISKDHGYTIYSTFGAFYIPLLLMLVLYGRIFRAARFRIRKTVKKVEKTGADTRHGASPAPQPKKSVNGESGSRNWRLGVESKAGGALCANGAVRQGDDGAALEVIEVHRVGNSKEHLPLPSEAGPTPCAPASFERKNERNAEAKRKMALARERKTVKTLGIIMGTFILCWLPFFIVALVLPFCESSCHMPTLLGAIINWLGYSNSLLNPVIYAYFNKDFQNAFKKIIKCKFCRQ

[11] = target: T5, 5-hydroxytryptamine receptor 2C (Homo sapiens, UniProt P28335)
T5 sequence (P28335 whole entry): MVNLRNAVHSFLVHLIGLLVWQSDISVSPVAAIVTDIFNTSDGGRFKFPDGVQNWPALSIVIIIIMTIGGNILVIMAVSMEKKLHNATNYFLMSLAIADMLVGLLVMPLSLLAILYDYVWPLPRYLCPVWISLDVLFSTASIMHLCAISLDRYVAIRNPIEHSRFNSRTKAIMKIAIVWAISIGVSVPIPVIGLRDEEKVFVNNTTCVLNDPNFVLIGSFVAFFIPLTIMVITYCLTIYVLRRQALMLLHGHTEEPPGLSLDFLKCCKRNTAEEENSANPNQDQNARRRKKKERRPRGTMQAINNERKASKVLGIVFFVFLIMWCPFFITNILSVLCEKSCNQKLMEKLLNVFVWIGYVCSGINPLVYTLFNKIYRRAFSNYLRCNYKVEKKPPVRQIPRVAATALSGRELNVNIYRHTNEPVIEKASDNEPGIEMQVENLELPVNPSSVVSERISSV

[12] = target: T6, Type-1 angiotensin II receptor (Homo sapiens, UniProt P30556)
T6 sequence (P30556 whole entry): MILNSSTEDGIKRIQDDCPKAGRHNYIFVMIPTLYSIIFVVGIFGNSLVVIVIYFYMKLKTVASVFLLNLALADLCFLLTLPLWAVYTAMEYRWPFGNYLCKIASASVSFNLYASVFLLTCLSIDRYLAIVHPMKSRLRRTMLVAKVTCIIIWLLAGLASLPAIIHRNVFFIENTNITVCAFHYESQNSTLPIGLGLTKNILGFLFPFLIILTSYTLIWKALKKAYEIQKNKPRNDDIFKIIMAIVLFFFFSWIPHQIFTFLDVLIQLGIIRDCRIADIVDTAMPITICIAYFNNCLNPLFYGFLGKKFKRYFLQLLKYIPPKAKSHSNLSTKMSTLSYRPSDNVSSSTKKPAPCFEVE
Note: assay procedure not described here.

COc1ccc(-c2cc(=S)ss2)cc1 [ANETHOLTRITHION]
AC50 [1]: > 30 µM
AC50 [2]: 5.9 µM
AC50 [3]: > 30 µM
AC50 [4]: > 30 µM
AC50 [5]: > 30 µM
AC50 [6]: > 30 µM
AC50 [7]: > 30 µM
AC50 [8]: > 30 µM
AC50 [9]: > 30 µM
AC50 [10]: > 30 µM
AC50 [11]: > 30 µM
AC50 [12]: 9.3 µM
